The values below come from patent US20240240136A1, “SELECTIVE LYSIS OF MAMMALIAN EUKARYOTIC CELLS AND VISUALIZATION OF VIABLE BACTERIAL CELLS” (priority 2021, published 2024).

For one series, the system named is E. coli ATCC 25922. Put plainly: Antibiotic susceptibility testing with lysis buffer sample preparation and PB detection. It counts as cell-based. As to conditions: for MIC: E. coli ATCC 25922 spiked in blood and MH media, 16 hr of incubation; for growth of bacteria (OD value) with increase in antibiotic concentration: ampicillin 2 mg/L to 16 mg/L, gentamicin 0.5 mg/L to 8 mg/L, after 16 hr of incubation. The text has this:
FIGS. 7 and 8 show antibiotic susceptibility testing. The lysis buffer based sample preparation method combined with detection using PB formation was used to perform antibiotic susceptibility testing (recommended by EUCAST [15]) using different concentration of ampicillin and gentamicin in separate experiments, on E. coli ATCC 25922 bacteria strain (10^6 CFU/mL) spiked in blood (sample) and in MH media (positive control). ‘MH+Lysis buffer’ is used as negative control (NC). […] The corresponding decrease in PB colour formation on the filter paper with increase in ampicillin and gentamicin concentration is shown on top of each bar in the graphs of the FIG. 7 and FIG. 8, respectively. The MIC of ampicillin and gentamicin was determined to be 16 and 8 mg/L respectively, which was in agreement with the MIC range provided by EUCAST for E. coli ATCC 25922.

Converted amounts (≈) assume the structure as drawn. Structures can show the parent of a compound that is named as a salt. Where two headings read alike, the source gives them in different places.

On to gentamicin, for which, in the series with E. coli ATCC 25922, the MIC (commonly the smallest concentration in the dilution series that meets the test's criterion for growth inhibition) was 8 µg/mL and the “growth of bacteria (OD value) with increase in antibiotic concentration” value is recorded as “growth of bacteria decreased”. For the compound `O=C(O)CC(O)(CC(=O)O)C(=O)O` [Citrate, ferric ammonium citrate], in the series on bacteria, the toxicity to bacteria entry is “not toxic”.

Turning to `CC1(C)S[C@@H]2[C@H](NC(=O)[C@H](N)c3ccccc3)C(=O)N2[C@H]1C(=O)O` [ampicillin], the MIC in the series with E. coli ATCC 25922 (Escherichia coli, ATCC25922, read-out: MIC) is 16 µg/mL (≈ 45.8 µM). Moreover, the “growth of bacteria (OD value) with increase in antibiotic concentration” value with E. coli ATCC 25922 is listed as “growth of bacteria decreased”.
